Results from patent US10093660B2, “Sulfoximine substituted quinazolines for pharmaceutical compositions” (EVOTEC INTERNATIONAL GMBH, priority 2013, dated 2018).

Legend:
[1] = biological target: MNK1a (Homo sapiens (Human), UniProt Q9BUB5); experiment: MNK1 in vitro kinase assay (Assay 3), Z'-LYTE; assay type: biochemical; details: for inhibition at 1 µM: compound concentration of 1 μM, read-out: MNK1 % INH
Description: C. MNK1 In Vitro Kinase Assay (Assay 3)
MNK1 Data can be obtained from the MNK1 Z′-LYTE® assay. The MNK1 Z′-LYTE® screening protocol and assay conditions are also described on www.invitrogen.com.
The assay is described as follows:
The Z′-LYTE® biochemical assay employs a fluorescence-based, coupled-enzyme format and is based on the differential sensitivity of phosphorylated and non-phosphorylated peptides to proteolytic cleavage. The peptide substrate is labeled with two fluorophores—one at each end—that make up a FRET pair.
In the primary reaction, the kinase transfers the gamma-phosphate of ATP to a single tyrosine, serine or threonine residue in a synthetic FRET-peptide. In the secondary reaction, a site-specific protease recognizes and cleaves non-phosphorylated FRET-peptides. Phosphorylation of FRET-peptides suppresses cleavage by the Development Reagent. Cleavage disrupts FRET between the donor (i.e., coumarin) and acceptor (i.e., fluorescein) fluorophores on the FRET-peptide, whereas uncleaved, phosphorylated FRET-peptides maintain FRET. A ratiometric method, which calculates the ratio (the Emission Ratio) of donor emission to acceptor emission after excitation of the donor fluorophore at 400 nm, is used to quantitate reaction progress, as shown in the equation below.
The 2×MKNK1 (MNK1) mixture is prepared in 50 mM HEPES pH 7.5, 0.01% BRIJ-35, 10 mM MgCl2, 4 mM MnCl2, 1 mM EGTA, 2 mM DTT.
The Test Compounds are screened in 1% DMSO (final) in the well.
All Peptide/Kinase Mixtures are diluted to a 2× working concentration in the MNK1 Kinase Buffer.
All ATP Solutions are diluted to a 4× working concentration in Kinase Buffer (50 mM HEPES pH 7.5, 0.01% BRIJ-35, 10 mM MgCl2, 1 mM EGTA).
Development Reagent Solution:
The Development Reagent is diluted in Development Buffer
1. 2.5 μL—4× Test Compound
2. 5 μL—2× Peptide/Kinase Mixture
5. 60-minute Kinase Reaction incubation at room temperature
6. 5 μL—Development Reagent Solution
8. 60-minute Development Reaction incubation at room temperature
9. Read on fluorescence plate reader and analyze the data
Control C0%=Average Coumarin emission signal of the 0% Phos. Control F100%=Average Fluorescein emission signal of the 100% Phos. Control F0%=Average Fluorescein emission signal of the 0% Phos. Control Graphing Software
SelectScreen® Kinase Profiling Service uses XLfit from IDBS. […] The activity of MNK proteins can be assayed also by other in vitro kinase assay formats. […] In general, MNK kinase assays can be performed such that a MNK substrate such as a protein or a peptide, which may or may not include modifications as further described below, or others are phosphorylated by MNK proteins having enzymatic activity in vitro. The activity of a candidate agent can then be determined via its ability to decrease the enzymatic activity of the MNK protein. The kinase activity may be detected by change of the chemical, physical or immunological properties of the substrate due to phosphorylation.

[2] = biological target: MNK2a (Homo sapiens (Human), UniProt Q9HBH9); experiment: MNK2a in vitro kinase assay (Assay 2), ADP-Glo; assay type: biochemical; details: assay 2; read-out: MNK2 IC50
Sequence of MNK2a (Q9HBH9 whole entry): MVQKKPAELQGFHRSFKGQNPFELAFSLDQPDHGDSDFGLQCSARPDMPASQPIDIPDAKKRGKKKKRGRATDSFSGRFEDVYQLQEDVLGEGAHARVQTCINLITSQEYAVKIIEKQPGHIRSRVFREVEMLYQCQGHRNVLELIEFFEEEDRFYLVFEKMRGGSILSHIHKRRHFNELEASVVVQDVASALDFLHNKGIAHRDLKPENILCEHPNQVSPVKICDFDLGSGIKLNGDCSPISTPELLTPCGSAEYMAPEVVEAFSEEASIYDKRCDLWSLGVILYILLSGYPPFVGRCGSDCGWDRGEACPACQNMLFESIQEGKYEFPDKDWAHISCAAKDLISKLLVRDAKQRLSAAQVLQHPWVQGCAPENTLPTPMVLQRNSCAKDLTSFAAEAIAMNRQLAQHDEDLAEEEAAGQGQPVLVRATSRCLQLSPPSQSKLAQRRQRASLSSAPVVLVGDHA
Description: B. MNK2a In Vitro Kinase Assay (Assay 2)

Sequence of MNK1a (Q9BUB5 other isoform, or with tags, fused parts or gaps): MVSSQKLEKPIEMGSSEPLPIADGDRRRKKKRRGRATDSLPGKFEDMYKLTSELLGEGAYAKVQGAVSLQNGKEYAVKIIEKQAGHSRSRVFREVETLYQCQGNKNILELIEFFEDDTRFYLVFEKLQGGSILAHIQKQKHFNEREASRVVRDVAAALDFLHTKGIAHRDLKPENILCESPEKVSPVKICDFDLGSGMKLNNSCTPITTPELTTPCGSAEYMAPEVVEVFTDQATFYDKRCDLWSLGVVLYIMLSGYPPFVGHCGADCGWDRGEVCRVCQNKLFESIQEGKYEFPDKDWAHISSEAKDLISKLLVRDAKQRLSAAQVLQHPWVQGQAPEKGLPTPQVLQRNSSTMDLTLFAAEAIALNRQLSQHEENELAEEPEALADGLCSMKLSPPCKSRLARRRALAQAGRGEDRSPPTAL

Row | inhibition at 1 µM [1] [%] | IC50 [2] [nM] | IC50 [1] [nM] | SMILES
1 | 100 | 4 |  | O=S1(=Nc2cc(Cl)c3c(Nc4cccnc4O[C@H]4COC[C@@H]4O)ncnc3c2)CCC1 [Example 1.13]
2 | 96 | 5 |  | CS(C)(=O)=Nc1cc(Cl)c2c(Nc3cccnc3O[C@H]3COC[C@@H]3O)ncnc2c1 [Example 1.14]
3 | 103 | 3 | 34 | O=S1(=Nc2cc(Cl)c3c(Nc4cccnc4O[C@H]4COC[C@@H]4O)ncnc3c2)CCCC1 [Example 1.15]
4 | 96 | 2 |  | O=S1(=Nc2cc(Cl)c3c(Nc4ccc(Cl)nc4O[C@H]4COC[C@@H]4O)ncnc3c2)CCC1 [Example 1.16]
5 | 103 | 2 |  | O=S1(=Nc2cc(Cl)c3c(Nc4ccc(Cl)nc4O[C@H]4COC[C@@H]4O)ncnc3c2)CCCC1 [Example 1.17]
6 | 97 | 2 |  | CS(C)(=O)=Nc1cc(Br)c2c(Nc3ccc(F)cc3O[C@H]3COC[C@@H]3O)ncnc2c1 [Example 1.18]
7 | 99 | 4 |  | CS(C)(=O)=Nc1cc(Cl)c2c(Nc3ccc(Cl)nc3O[C@H]3COC[C@@H]3O)ncnc2c1 [Example 1.19]
8 | 97 | 2 |  | O=S1(=Nc2cc(F)c3c(Nc4ccc(Cl)nc4O[C@H]4COC[C@@H]4O)ncnc3c2)CCCC1 [Example 1.20]
9 | 93 | 7 |  | CS(C)(=O)=Nc1cc(F)c2c(Nc3ccc(Cl)nc3O[C@H]3COC[C@@H]3O)ncnc2c1 [Example 1.21]
10 | 92 | 1 |  | O=S1(=Nc2cc(Cl)c3c(Nc4ccc(F)cc4O[C@@H]4COC[C@H]4O)ncnc3c2)CCC1 [Example 1.22]
11 | 99 | 5 |  | Cc1cc(N=S(C)(C)=O)cc2ncnc(Nc3ccc(Cl)cc3O[C@H]3COC[C@@H]3O)c12 [Example 1.23]
12 | 91 | 3 |  | O=S1(=Nc2cc(F)c3c(Nc4ccc(Cl)nc4O[C@H]4COC[C@@H]4O)ncnc3c2)CCC1 [Example 1.24]
13 | 97 | 2 |  | O=S1(=Nc2cc(Cl)c3c(Nc4ccc(F)cc4O[C@@H]4COC[C@H]4O)ncnc3c2)CCCC1 [Example 1.25]
14 | 99 | 3 |  | CS(C)(=O)=Nc1cc(Cl)c2c(Nc3ccc(F)cc3O[C@@H]3COC[C@H]3O)ncnc2c1 [Example 1.26]
15 |  | 3 | 33 | Cc1cc(N=S2(=O)CCCC2)cc2ncnc(Nc3ccc(Cl)cc3O[C@H]3COC[C@@H]3O)c12 [Example 1.27]
16 | 96 | 4 |  | O=S1(=Nc2cc(C(F)(F)F)c3c(Nc4ccc(F)cc4O[C@H]4COC[C@@H]4O)ncnc3c2)CCCC1 [Example 1.28]
17 | 100 | 2 |  | Cc1cc(N=S2(=O)CCC2)cc2ncnc(Nc3ccc(Cl)cc3O[C@H]3COC[C@@H]3O)c12 [Example 1.29]
18 | 93 | 3 |  | Cc1cc(N=S2(=O)CCC2)cc2ncnc(Nc3ccc(Cl)cc3O[C@@H]3COC[C@H]3O)c12 [Example 1.30]
19 | 91 | 6 |  | Cc1cc(N=S(C)(C)=O)cc2ncnc(Nc3ccc(Cl)cc3O[C@@H]3COC[C@H]3O)c12 [Example 1.31]
20 | 94 | 4 |  | Cc1cc(N=S2(=O)CCCC2)cc2ncnc(Nc3ccc(Cl)cc3O[C@@H]3COC[C@H]3O)c12 [Example 1.32]
21 | 96 | 8 |  | Cc1c(F)c(N=S(C)(C)=O)cc2ncnc(Nc3ccc(F)cc3O[C@H]3COC[C@@H]3O)c12 [Example 1.33]
22 | 85 | 17 |  | Cc1cc(N=S2(=O)CCCC2)cc2ncnc(Nc3ccc(F)cc3O[C@@H]3CN(C)C[C@H]3O)c12 [Example 2.5]
23 | 63 | 91 |  | Cc1cc(N=S(C)(C)=O)cc2ncnc(Nc3ccc(F)cc3O[C@@H]3CN(C)C[C@H]3O)c12 [Example 2.6]

Row | inhibition at 1 µM [1] [%] | IC50 [2] [nM] | IC50 [1] [nM] | SMILES
24 | 79 | 14 |  | Cc1cc(N=S(C)(C)=O)cc2ncnc(Nc3ccc(F)cc3O[C@@H]3CN(S(C)(=O)=O)C[C@H]3O)c12 [Example 2.11]
25 |  | 3 | 94 | Cc1cc(N=S2(=O)CCCC2)cc2ncnc(Nc3ccc(F)cc3O[C@@H]3CN(S(C)(=O)=O)C[C@H]3O)c12 [Example 2.12]
26 | 90 | 16 |  | CC(=O)N1C[C@@H](O)[C@H](Oc2cc(F)ccc2Nc2ncnc3cc(N=S4(=O)CCCC4)cc(C)c23)C1 [Example 2.13]
27 | 19 | 108 |  | CO[C@@H]1CN(C(=O)OCc2ccccc2)C[C@H]1Oc1cc(F)ccc1Nc1ncnc2cc(N=S(C)(C)=O)cc(C)c12 [Example 2.14]
28 | 31 | 78 |  | CO[C@@H]1CN(C(=O)OCc2ccccc2)C[C@H]1Oc1cc(F)ccc1Nc1ncnc2cc(N=S3(=O)CCCC3)cc(C)c12 [Example 2.15]
29 | 55 | 82 |  | CO[C@@H]1CN(C(=O)OCc2ccccc2)C[C@H]1Oc1ncccc1Nc1ncnc2cc(N=S3(=O)CCCC3)cc(C)c12 [Example 2.16]
30 | 18 | 21 |  | CO[C@@H]1CN(C(=O)OCc2ccccc2)C[C@H]1Oc1ncccc1Nc1ncnc2cc(N=S(C)(C)=O)cc(C)c12 [Example 2.17]
31 |  | 49 | 359 | Cc1cc(N=S2(=O)CCCC2)cc2ncnc(Nc3cccnc3O[C@@H]3CN(C)C[C@H]3O)c12 [Example 2.18]
32 | 45 | 132 |  | Cc1cc(N=S(C)(C)=O)cc2ncnc(Nc3cccnc3O[C@@H]3CN(C)C[C@H]3O)c12 [Example 2.19]
33 | 77 | 27 |  | Cc1cc(N=S(C)(C)=O)cc2ncnc(Nc3cccnc3O[C@@H]3CN(S(C)(=O)=O)C[C@H]3O)c12 [Example 2.20]
34 | 57 | 179 |  | CC(=O)N1C[C@@H](O)[C@H](Oc2ncccc2Nc2ncnc3cc(N=S(C)(C)=O)cc(C)c23)C1 [Example 2.21]
35 | 86 | 7 |  | Cc1cc(N=S2(=O)CCCC2)cc2ncnc(Nc3cccnc3O[C@@H]3CN(S(C)(=O)=O)C[C@H]3O)c12 [Example 2.22]
36 | 75 | 23 |  | CC(=O)N1C[C@@H](O)[C@H](Oc2ncccc2Nc2ncnc3cc(N=S4(=O)CCCC4)cc(C)c23)C1 [Example 2.23]
37 | 85 | 11 |  | Cc1cc(N=S(C)(C)=O)cc2ncnc(Nc3cccnc3O[C@H]3COC[C@@H]3O)c12 [Example 2.28]
38 | 104 | 2 | 40 | Cc1cc(N=S2(=O)CCCC2)cc2ncnc(Nc3ccc(F)cc3O[C@H]3COC[C@@H]3O)c12 [Example 2.29]
39 | 93 | 4 |  | CCS(C)(=O)=Nc1cc(C)c2c(Nc3ccc(F)cc3O[C@H]3COC[C@@H]3O)ncnc2c1 (stereo partly shown) [Example 2.37]
40 | 96 | 3 |  | Cc1cc(N=S2(=O)CCCCC2)cc2ncnc(Nc3ccc(F)cc3O[C@H]3COC[C@@H]3O)c12 [Example 2.38]
41 | 96 | 6 |  | Cc1cc(N=S(C)(C)=O)cc2ncnc(Nc3ccc(Cl)nc3O[C@H]3COC[C@@H]3O)c12 [Example 2.40]
42 |  | 4 | 39 | Cc1cc(N=S2(=O)CCCC2)cc2ncnc(Nc3ccc(Cl)nc3O[C@H]3COC[C@@H]3O)c12 [Example 2.42]
43 | 100 | 3 |  | Cc1cc(N=S2(=O)CCC2)cc2ncnc(Nc3ccc(Cl)nc3O[C@H]3COC[C@@H]3O)c12 [Example 2.43]
44 | 90 | 7 |  | Cc1cc(N=S(C)(C)=O)cc2ncnc(Nc3ccc(Cl)nc3O[C@@H]3COC[C@H]3O)c12 [Example 2.48]
45 | 81 | 11 |  | Cc1cc(N=S(C)(C)=O)cc2ncnc(Nc3cccnc3O[C@@H]3COC[C@H]3O)c12 [Example 2.51]
46 | 83 | 4 |  | Cc1cc(N=S2(=O)CCC2)cc2ncnc(Nc3ccc(Cl)nc3O[C@@H]3COC[C@H]3O)c12 [Example 2.53]
